Source: ChEMBL document CHEMBL2169789, “Potent HGF/c-Met axis inhibitors from Eucalyptus globulus: the coupling of phloroglucinol and sesquiterpenoid is essential for the activity” (J Med Chem, 2012)
Each block holds one compound with its values, some of them ahead of it. The source made the active and inactive calls. No cut-off for these calls is given here.

How the values were obtained:
[1] = target: T1, Hepatocyte growth factor receptor (Homo sapiens, UniProt P08581); experiment: Inhibition of c-MET assessed as inhibition of HGF-induced phosphorylation at 5 uM by Western blotting analysis
[2] = target: T1, Hepatocyte growth factor receptor; experiment: Inhibition of HGF-induced phosphorylation of c-MET in human NCI-H441 cells after 2 hrs by Western blotting analysis; format: cell-based
[3] = target: Hepatocyte growth factor receptor (Canis lupus familiaris) (UniProt Q75ZY9); experiment: Inhibition of c-MET in MDCK cells assessed as inhibition of HGF-induced cell motility by wound healing assay; format: cell-based
[4] = target: T1, Hepatocyte growth factor receptor; experiment: Inhibition of HGF-induced phosphorylation of c-MET in human DU145 cells at 5 uM after 2 hrs by Western blotting analysis; format: cell-based; conditions: DU-145
[5] = target: T1, Hepatocyte growth factor receptor; experiment: Inhibition of HGF-induced phosphorylation of c-MET in human DU145 cells after 2 hrs by Western blotting analysis; format: cell-based; conditions: DU-145
[6] = target: T1, Hepatocyte growth factor receptor; experiment: Inhibition of HGF-induced phosphorylation of c-MET in human NCI-H441 cells at 5 uM after 2 hrs by Western blotting analysis; format: cell-based
[7] = target: Hepatocyte growth factor receptor (Mus musculus) (UniProt P16056); experiment: Inhibition of c-MET in mouse NIH3T3 cells assessed as reduction of TPR-Met phosphorylation at 20 uM after 2 hrs by Western blotting analysis; format: cell-based
[8] = target: T1, Hepatocyte growth factor receptor; experiment: Inhibition of HGF-induced phosphorylation of c-MET in human A549 cells after 2 hrs by Western blotting analysis; format: cell-based
[9] = target: T1, Hepatocyte growth factor receptor; experiment: Inhibition of c-MET in human MKN45 cells assessed as reduction of phosphorylation at 20 uM after 2 hrs by Western blotting analysis; format: cell-based; conditions: MKN-45
[10] = target: Hepatocyte growth factor receptor (Canis lupus familiaris) (UniProt Q75ZY9); experiment: Inhibition of c-MET in MDCK cells assessed as inhibition of HGF-induced branching morphogenesis after 5 days by microscopic analysis; format: cell-based
[11] = target: Hepatocyte growth factor receptor (Canis lupus familiaris) (UniProt Q75ZY9); experiment: Inhibition of c-MET in MDCK cells assessed as inhibition of HGF-induced urokinase activity at 10 uM after 24 hrs; format: cell-based
[12] = target: Hepatocyte growth factor receptor (Canis lupus familiaris) (UniProt Q75ZY9); experiment: Inhibition of c-MET in MDCK cells assessed as inhibition of HGF-induced cell scattering at 10 uM after 24 hrs by microscopic analysis; format: cell-based
[13] = target: Hepatocyte growth factor receptor (Canis lupus familiaris) (UniProt Q75ZY9); experiment: Inhibition of c-MET in MDCK cells assessed as inhibition of HGF-induced cell motility at 10 uM by wound healing assay; format: cell-based
[14] = target: Hepatocyte growth factor receptor (Canis lupus familiaris) (UniProt Q75ZY9); experiment: Inhibition of HGF-induced phosphorylation of c-MET in MDCK cells after 2 hrs by Western blotting analysis; format: cell-based
[15] = target: Hepatocyte growth factor receptor (Canis lupus familiaris) (UniProt Q75ZY9); experiment: Inhibition of c-MET in MDCK cells assessed as inhibition of HGF-induced urokinase activity after 24 hrs; format: cell-based
[16] = target: T1, Hepatocyte growth factor receptor; experiment: Inhibition of c-MET by ELISA assay
[17] = target: Hepatocyte growth factor receptor (Canis lupus familiaris) (UniProt Q75ZY9); experiment: Inhibition of c-MET in MDCK cells assessed as inhibition of HGF-induced cell scattering after 24 hrs by microscopic analysis; format: cell-based
[18] = target: T1, Hepatocyte growth factor receptor; experiment: Inhibition of HGF-induced phosphorylation of c-MET in human A549 cells at 5 uM after 2 hrs by Western blotting analysis; format: cell-based
[19] = target: Hepatocyte growth factor receptor (Canis lupus familiaris) (UniProt Q75ZY9); experiment: Inhibition of HGF-induced phosphorylation of c-MET in MDCK cells at 5 uM after 2 hrs by Western blotting analysis; format: cell-based

T1 sequence (P08581 whole entry): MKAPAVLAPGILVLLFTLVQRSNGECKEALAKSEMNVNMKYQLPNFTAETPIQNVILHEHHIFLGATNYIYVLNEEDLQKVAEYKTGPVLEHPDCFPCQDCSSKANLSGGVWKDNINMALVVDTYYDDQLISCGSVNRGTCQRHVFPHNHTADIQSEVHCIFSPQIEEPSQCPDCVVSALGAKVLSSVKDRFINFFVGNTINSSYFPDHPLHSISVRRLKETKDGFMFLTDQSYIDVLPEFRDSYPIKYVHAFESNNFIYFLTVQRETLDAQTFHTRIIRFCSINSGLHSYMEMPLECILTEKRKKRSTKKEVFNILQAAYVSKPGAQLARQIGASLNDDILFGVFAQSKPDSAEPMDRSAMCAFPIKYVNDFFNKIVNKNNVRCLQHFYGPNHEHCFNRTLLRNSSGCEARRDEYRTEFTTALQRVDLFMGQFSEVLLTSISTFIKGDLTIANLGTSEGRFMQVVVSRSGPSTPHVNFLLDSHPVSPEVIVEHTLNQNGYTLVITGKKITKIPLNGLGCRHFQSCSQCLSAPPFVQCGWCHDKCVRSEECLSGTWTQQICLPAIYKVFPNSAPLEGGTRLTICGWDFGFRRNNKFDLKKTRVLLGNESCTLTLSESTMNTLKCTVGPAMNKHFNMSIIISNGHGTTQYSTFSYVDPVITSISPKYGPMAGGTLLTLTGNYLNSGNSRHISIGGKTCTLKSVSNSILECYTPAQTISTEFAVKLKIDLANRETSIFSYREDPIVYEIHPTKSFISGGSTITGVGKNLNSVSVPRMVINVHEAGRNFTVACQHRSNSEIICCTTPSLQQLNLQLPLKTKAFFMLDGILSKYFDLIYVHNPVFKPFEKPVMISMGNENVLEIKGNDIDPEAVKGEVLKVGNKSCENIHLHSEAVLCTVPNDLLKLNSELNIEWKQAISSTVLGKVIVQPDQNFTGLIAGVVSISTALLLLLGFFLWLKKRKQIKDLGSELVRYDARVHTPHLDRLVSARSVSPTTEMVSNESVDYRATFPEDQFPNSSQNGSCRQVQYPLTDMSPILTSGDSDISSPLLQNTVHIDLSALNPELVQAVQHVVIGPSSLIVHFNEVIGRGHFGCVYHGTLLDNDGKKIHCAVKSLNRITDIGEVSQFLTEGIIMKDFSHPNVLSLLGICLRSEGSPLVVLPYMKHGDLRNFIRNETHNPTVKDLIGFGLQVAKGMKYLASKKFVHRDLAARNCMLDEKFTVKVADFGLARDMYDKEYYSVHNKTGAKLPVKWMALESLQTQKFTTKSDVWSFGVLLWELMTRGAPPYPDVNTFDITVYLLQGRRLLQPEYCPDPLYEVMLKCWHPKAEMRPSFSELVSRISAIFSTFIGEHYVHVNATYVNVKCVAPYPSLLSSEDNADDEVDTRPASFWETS
Chain of Hepatocyte growth factor receptor (Canis lupus familiaris) (Q75ZY9 whole entry): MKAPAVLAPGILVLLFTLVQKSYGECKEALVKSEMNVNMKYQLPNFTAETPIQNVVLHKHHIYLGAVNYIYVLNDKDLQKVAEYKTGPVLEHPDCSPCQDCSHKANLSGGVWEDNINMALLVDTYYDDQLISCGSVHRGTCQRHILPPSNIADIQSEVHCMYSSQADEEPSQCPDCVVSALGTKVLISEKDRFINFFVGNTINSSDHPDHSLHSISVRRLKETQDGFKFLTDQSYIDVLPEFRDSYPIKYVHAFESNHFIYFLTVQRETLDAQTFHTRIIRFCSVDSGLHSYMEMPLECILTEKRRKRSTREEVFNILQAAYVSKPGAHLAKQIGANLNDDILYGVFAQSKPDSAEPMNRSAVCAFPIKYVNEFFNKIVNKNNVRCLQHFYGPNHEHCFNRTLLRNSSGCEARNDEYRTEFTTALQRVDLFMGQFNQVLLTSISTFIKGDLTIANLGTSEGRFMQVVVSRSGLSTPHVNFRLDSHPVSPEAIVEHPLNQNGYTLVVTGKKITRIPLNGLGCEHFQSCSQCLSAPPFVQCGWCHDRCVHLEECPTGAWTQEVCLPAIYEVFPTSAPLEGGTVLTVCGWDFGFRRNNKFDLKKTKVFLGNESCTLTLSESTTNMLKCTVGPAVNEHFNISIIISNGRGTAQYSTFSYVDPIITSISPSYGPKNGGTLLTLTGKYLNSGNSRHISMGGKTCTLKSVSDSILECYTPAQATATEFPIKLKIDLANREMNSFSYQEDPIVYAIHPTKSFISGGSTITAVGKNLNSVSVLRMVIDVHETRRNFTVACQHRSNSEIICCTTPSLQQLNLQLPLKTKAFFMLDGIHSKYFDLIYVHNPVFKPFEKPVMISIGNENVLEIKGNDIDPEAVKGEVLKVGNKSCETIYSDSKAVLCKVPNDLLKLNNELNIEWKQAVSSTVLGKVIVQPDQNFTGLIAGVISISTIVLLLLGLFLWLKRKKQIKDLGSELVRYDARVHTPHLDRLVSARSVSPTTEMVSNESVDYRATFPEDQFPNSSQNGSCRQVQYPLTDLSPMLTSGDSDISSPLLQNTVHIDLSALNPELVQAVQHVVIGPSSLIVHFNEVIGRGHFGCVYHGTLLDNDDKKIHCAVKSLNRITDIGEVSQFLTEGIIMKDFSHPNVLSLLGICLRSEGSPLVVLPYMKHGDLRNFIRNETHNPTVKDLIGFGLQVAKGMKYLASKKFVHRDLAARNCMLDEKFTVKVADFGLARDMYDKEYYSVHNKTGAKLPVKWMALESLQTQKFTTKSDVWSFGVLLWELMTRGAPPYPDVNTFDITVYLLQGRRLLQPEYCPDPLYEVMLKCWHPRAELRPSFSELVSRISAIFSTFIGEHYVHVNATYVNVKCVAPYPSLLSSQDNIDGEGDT
Chain of Hepatocyte growth factor receptor (Mus musculus) (P16056 whole entry): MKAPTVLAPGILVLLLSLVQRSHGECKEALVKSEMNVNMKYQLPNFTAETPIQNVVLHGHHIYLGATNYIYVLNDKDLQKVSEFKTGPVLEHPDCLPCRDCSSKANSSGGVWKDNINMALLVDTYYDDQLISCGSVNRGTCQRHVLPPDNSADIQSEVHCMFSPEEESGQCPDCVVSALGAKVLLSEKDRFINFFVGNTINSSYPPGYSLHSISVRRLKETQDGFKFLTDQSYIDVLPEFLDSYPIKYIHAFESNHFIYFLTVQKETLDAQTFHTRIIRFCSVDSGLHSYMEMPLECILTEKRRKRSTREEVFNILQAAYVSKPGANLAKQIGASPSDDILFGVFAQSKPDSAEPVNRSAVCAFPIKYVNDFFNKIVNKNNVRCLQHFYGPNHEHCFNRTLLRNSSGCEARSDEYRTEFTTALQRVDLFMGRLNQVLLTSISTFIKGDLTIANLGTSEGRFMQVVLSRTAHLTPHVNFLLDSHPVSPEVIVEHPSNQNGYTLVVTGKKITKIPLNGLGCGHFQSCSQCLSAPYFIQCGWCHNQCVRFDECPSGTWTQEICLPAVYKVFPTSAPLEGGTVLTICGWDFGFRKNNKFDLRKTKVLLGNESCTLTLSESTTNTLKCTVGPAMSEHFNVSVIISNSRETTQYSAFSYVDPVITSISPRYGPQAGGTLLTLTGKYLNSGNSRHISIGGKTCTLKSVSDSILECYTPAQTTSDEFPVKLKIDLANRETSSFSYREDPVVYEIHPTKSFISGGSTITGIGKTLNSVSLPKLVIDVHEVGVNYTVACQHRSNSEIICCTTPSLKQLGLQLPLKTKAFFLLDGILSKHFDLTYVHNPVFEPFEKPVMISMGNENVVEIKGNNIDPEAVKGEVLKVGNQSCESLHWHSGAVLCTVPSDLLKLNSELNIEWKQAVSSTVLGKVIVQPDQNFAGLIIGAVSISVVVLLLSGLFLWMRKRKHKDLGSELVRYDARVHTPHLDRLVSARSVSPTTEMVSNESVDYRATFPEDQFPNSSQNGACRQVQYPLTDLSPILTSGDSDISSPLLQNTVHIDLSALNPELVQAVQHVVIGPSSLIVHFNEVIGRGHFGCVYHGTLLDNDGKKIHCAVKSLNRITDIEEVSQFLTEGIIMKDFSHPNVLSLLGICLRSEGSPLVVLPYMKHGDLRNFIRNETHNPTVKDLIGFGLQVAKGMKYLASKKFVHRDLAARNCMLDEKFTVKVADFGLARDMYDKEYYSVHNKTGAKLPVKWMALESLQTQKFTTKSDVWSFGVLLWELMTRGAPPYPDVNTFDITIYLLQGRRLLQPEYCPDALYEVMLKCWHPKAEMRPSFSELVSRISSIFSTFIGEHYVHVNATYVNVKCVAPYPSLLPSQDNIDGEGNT

SMILES: CC1(C)[C@H]2[C@H]3[C@@H](CC[C@]3(C)O)[C@](C)(O)CC[C@H]21
- inhibition [1]: inactive

SMILES: CC(C)CC(=O)c1c(O)c(C=O)c(O)c(C=O)c1O
- inhibition [1]: inactive

SMILES: C[C@@H]1CC[C@@H]2[C@@H]1[C@H]1[C@@H](CC[C@@]2(C)O)C1(C)C
- inhibition [1]: inactive

Next, values leading:

- inhibition [1]: Active
SMILES: CC(C)C[C@H](c1c(O)c(C=O)c(O)c(C=O)c1O)[C@@]1(C)CC[C@@H]2[C@@H]1[C@H]1[C@@H](CC[C@@]2(C)O)C1(C)C

- inhibition [2]: Dose-dependent effect
- inhibition [3]: Dose-dependent effect
- inhibition [4]: > 50%
- inhibition [5]: Dose-dependent effect
- inhibition [6]: > 50%
- inhibition [7]: inactive
- inhibition [8]: Dose-dependent effect
- inhibition [9]: inactive
- inhibition [10]: Active
- inhibition [11]: 80%
- inhibition [12]: Active
- inhibition [13]: Active
- inhibition [14]: Dose-dependent effect
- inhibition [15]: Dose-dependent effect
- inhibition [1]: Active
- IC50 [16]: > 50 µM
- inhibition [17]: Dose-dependent effect
- inhibition [18]: > 50%
- inhibition [19]: > 50%
SMILES: CC(C)CC(=O)c1c(O)c(C=O)c(O)c(C[C@@]2(C)CC[C@@H]3[C@@H]2[C@H]2[C@@H](CC[C@@]3(C)O)C2(C)C)c1O [EUCALYPTIN A]

- inhibition [1]: inactive
SMILES: Cc1c(O)c(C=O)c(O)c(C(=O)CC(C)C)c1O

- inhibition [1]: Active
SMILES: CC(C)C[C@@H](c1c(O)c(C=O)c(O)c(C=O)c1O)[C@@]1(C)CC[C@@H]2[C@@H]1[C@H]1[C@@H](CC[C@@]2(C)O)C1(C)C
